{"source": "patent EP0193283A1", "about": "“Thiazoloquinoline derivatives, process for their preparation and compositions containing them” (BEECHAM GROUP PLC, priority 1985, dated 1986)", "format_in_all_cases": "cell-based", "key": {"[1]": {"test_system": "S.aureus M12", "assay": "Antibacterial MIC on agar", "conditions": "Staphylococcus aureus"}, "[2]": {"test_system": "S.agalactiae SPAI", "assay": "Antibacterial MIC on agar", "conditions": "Streptococcus agalactiae"}, "[3]": {"test_system": "S.dysgalactiae FRO 7A", "assay": "Antibacterial MIC on agar", "conditions": "Streptococcus dysgalactiae, FRO7A"}, "[4]": {"test_system": "M. hyopneumoniae x 5 strains", "assay": "In vitro antimycoplasmal MIC", "conditions": "Mesomycoplasma hyopneumoniae, X5STRAINS, Friis' agarose medium or SP4 medium with 0.65% agarose"}, "[5]": {"test_system": "M. hyorhinis ATCC 23234", "assay": "In vitro antimycoplasmal MIC", "conditions": "Mesomycoplasma hyorhinis, ATCC23234, Friis' agarose medium or SP4 medium with 0.65% agarose"}, "[6]": {"test_system": "M. hyosynoviae ATCC 25591", "assay": "In vitro antimycoplasmal MIC", "conditions": "Friis' agarose medium or SP4 medium with 0.65% agarose"}, "[7]": {"test_system": "M. bovis NCTC 10131", "assay": "microbe, parasite or virus in culture", "conditions": "NCTC10131"}, "[8]": {"test_system": "M. dispar NCTC 10125", "assay": "In vitro antimycoplasmal MIC", "conditions": "Friis' agarose medium or SP4 medium with 0.65% agarose"}, "[9]": {"test_system": "M. gallisepticum S6", "assay": "In vitro antimycoplasmal MIC", "conditions": "Mycoplasmoides gallisepticum, Friis' agarose medium or SP4 medium with 0.65% agarose"}, "[10]": {"test_system": "M. synoviae ATCC 25204", "assay": "In vitro antimycoplasmal MIC", "conditions": "Mycoplasmopsis synoviae, ATCC25204, Friis' agarose medium or SP4 medium with 0.65% agarose"}, "[11]": {"test_system": "M. iowae B11", "assay": "In vitro antimycoplasmal MIC", "conditions": "Friis' agarose medium or SP4 medium with 0.65% agarose"}, "[12]": {"test_system": "M. meleagridis 17529", "assay": "In vitro antimycoplasmal MIC", "conditions": "Friis' agarose medium or SP4 medium with 0.65% agarose"}, "[13]": {"test_system": "M. pneumoniae x vs 9 strains", "assay": "In vitro antimycoplasmal MIC", "conditions": "Mycoplasmoides pneumoniae, XVS9STRAINS, Friis' agarose medium or SP4 medium with 0.65% agarose"}}}
{"smiles": "CCNCC1CCN(c2cc3c(cc2F)c(=O)c(C(=O)O)c2scc(C)n23)C1", "note": "(stereo not shown) [Example 1, 8-[3-[(Ethylamino)methl]-1-pyrrolidinyl]-7-fluoro-1-methyl-5-oxo-5H-thiazolo[3,2-a]-quinoline-4-carboxylic acid]", "values": [{"measurement": "MIC", "setting": "[1]", "result": 120, "unit": "ng/mL"}, {"measurement": "MIC", "setting": "[2]", "result": 1000, "unit": "ng/mL"}, {"measurement": "MIC", "setting": "[3]", "result": 500, "unit": "ng/mL"}, {"measurement": "MIC", "setting": "[4]", "result": 0.001, "unit": "ng/mL"}, {"measurement": "MIC", "setting": "[5]", "result": 0.05, "unit": "ng/mL"}, {"measurement": "MIC", "setting": "[6]", "result": 0.05, "unit": "ng/mL"}, {"measurement": "MIC", "setting": "[7]", "result": 0.1, "unit": "ng/mL"}, {"measurement": "MIC", "setting": "[8]", "result": 0.025, "unit": "ng/mL"}, {"measurement": "MIC", "setting": "[9]", "result": 0.025, "unit": "ng/mL"}, {"measurement": "MIC", "setting": "[10]", "result": 0.1, "unit": "ng/mL"}, {"measurement": "MIC", "setting": "[11]", "result": 0.025, "unit": "ng/mL"}, {"measurement": "MIC", "setting": "[12]", "result": 0.025, "unit": "ng/mL"}, {"measurement": "MIC", "setting": "[13]", "result": 0.13, "unit": "ng/mL"}]}
